Reference: US20020137929A1, “1 - (3-heterocyclylphenyl) isothiourea, -isourea, -guanidine and -amidine herbicidal agents” (Intellectual Property Department, BASF Aktiengesellschaft, priority 1998, published 2002)

Legend:
[1] = tested on: SETVI (Foxtail, Green); test: Preemergence herbicidal evaluation; type: in vivo, Setaria viridis; conditions: rated 4-5 weeks after treatment
Outline: (§1)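 Preemergence soil application of compound, sprayed in aqueous acetone at rates equivalent to about 0.0156 to 0.500 kg per hectare onto freshly sown cups. Plant response was judged by eye on a 0-9 scale four to five weeks later.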

[2] = tested on: ABUTH (Velvetleaf); test: Postemergence herbicidal evaluation; type: in vivo, Abutilon theophrasti
Outline: (§2)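 Seedlings grown about two weeks were sprayed at 40 psi with compound dispersed in 50/50 acetone/water plus 0.5% TWEEN 20, at about 0.0156 to 0.500 kg/ha. Plants were kept in the greenhouse and scored 4–5 weeks later on a 0–9 visual scale against untreated controls.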

[3] = tested on: MOOVA (Monochoria); test: Preemergence weed control under flooded paddy conditions; type: in vivo, Monochoria vaginalis; conditions: rated 3-4 weeks after treatment
Outline: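 Ratings on a 0-9 visual scale cover stand, vigor, malformation, size, chlorosis and overall appearance relative to a control, taken three to four weeks post-treatment. Application was into flood water over freshly sown silt loam at roughly 0.0313 to 0.500 kg/ha.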

[4] = tested on: CYPIR (Rice Flatsedge); test: Postemergence weed control under flooded paddy conditions; type: in vivo, Cyperus iria; conditions: postemergence weeds, 3-4 weeks after treatment
Outline: (§3)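 With weeds 3 to 5 cm tall and rice at the 1.5 to 2.5 leaf stage, containers were flooded and water held 1.5 to 3 cm above soil. Compounds in 50/50 v/v aqueous/acetone went into the flood water at about 0.0313 to 0.500 kg/ha a.i. Effects were visually rated 0–9 against controls after three to four weeks in the greenhouse.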

[5] = tested on: IPOHE (Morningglory, Ivyleaf); test: Preemergence herbicidal evaluation; type: in vivo, Ipomoea hederacea; conditions: rated 4-5 weeks after treatment
Outline: as §1

[6] = tested on: ECHCG (Barnyardgrass); test: Preemergence herbicidal evaluation; type: in vivo, Echinochloa crus-galli; conditions: rated 4-5 weeks after treatment
Outline: as §1

[7] = tested on: TRZAWR (Wheat, Winter, cv Riband); test: Preemergence herbicidal evaluation; type: in vivo, Triticum aestivum; conditions: rated 4-5 weeks after treatment
Outline: as §1

[8] = tested on: ECHORC (Watergrass (Calif.)); test: Postemergence weed control under flooded paddy conditions; type: in vivo, Echinochloa oryzoides; conditions: postemergence weeds, 3-4 weeks after treatment
Outline: as §3

[9] = tested on: TRZAWR (Wheat, Winter, cv Riband); test: Postemergence herbicidal evaluation; type: in vivo, Triticum aestivum
Outline: as §2

[10] = tested on: ECHORC (Watergrass (Calif.)); test: Preemergence weed control under flooded paddy conditions; type: in vivo, Echinochloa oryzoides; conditions: rated 3-4 weeks after treatment
Outline: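 Seeds or propagules sown in silt loam kept flooded 1.5-3 cm; compounds in 50/50 acetone/water pipetted into flood water at about 0.0313 to 0.500 kg/ha. Greenhouse; visual 0-9 rating versus untreated control 3-4 weeks after treatment.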

[11] = tested on: CHEAL (Lambsquarters, Common); test: Preemergence herbicidal evaluation; type: in vivo, Chenopodium album; conditions: rated 4-5 weeks after treatment
Outline: as §1

[12] = tested on: IPOHE (Morningglory, Ivyleaf); test: Postemergence herbicidal evaluation; type: in vivo, Ipomoea hederacea
Outline: as §2

[13] = tested on: ORYSAT (Rice, Tebonnet); test: Preemergence herbicidal evaluation; type: in vivo, Oryza sativa, (L.) Tebonnet; conditions: rated 4-5 weeks after treatment
Outline: as §1

`CCOC(=O)COc1ccccc1CC1S/C(=N/c2cc(-n3c(=O)cc(C(F)(F)F)n(C)c3=O)c(F)cc2Cl)N(CC(=O)OCC)C1=O` (stereo not shown) [Compound 42, 2-{{2-Chloro-5-[3,6-dihydro-3-methyl-2,6-dioxo-4-(trifluoromethyl)-1(2H)-pyrimidinyl]-4-fluoro-phenyl}imino}-5-(o-hydroxybenzyl)-4-oxo-3-thiazolidineacetic acid, ethyl ester, ester with ethyl glycolate] was tested, and the “Preemergence herbicidal rating SETVI” value ([1]; rate 0.0313 kg/ha) was 0.0, the “Preemergence herbicidal rating SETVI” value ([1]; rate 0.0625 kg/ha) was 1.0 and the “Preemergence herbicidal rating SETVI” value ([1]; rate 0.1250 kg/ha) was 0.0. The “Preemergence herbicidal rating SETVI” value ([1]; rate 0.2500 kg/ha) was 0.0, the “Postemergence herbicidal rating ABUTH” value ([2]; Rate 0.0158 kg/ha) was 9.0 and the “Postemergence herbicidal rating ABUTH” value ([2]; Rate 0.0315 kg/ha) was 9.0. The “Postemergence herbicidal rating ABUTH” value ([2]; Rate 0.0630 kg/ha) was 9.0, the “Herbicidal rating MOOVA” value ([3]; 0.0313 kg/ha) was 7.0 and the “Herbicidal rating MOOVA” value ([3]; 0.0625 kg/ha) was 9.0. The “Herbicidal rating MOOVA” value ([3]; 0.1250 kg/ha) was 9.0, the “Herbicidal rating MOOVA” value ([3]; 0.2500 kg/ha) was 9.0 and the “Herbicidal rating CYPIR” value ([4]; rate 0.0313 kg/ha) was 0.0. The “Herbicidal rating CYPIR” value ([4]; rate 0.0625 kg/ha) was 0.0, the “Herbicidal rating CYPIR” value ([4]; rate 0.1250 kg/ha) was 0.0 and the “Herbicidal rating CYPIR” value ([4]; rate 0.2500 kg/ha) was 0.0. The “Preemergence herbicidal rating IPOHE” value ([5]; rate 0.0313 kg/ha) was 0.0, the “Preemergence herbicidal rating IPOHE” value ([5]; rate 0.0625 kg/ha) was 0.0 and the “Preemergence herbicidal rating IPOHE” value ([5]; rate 0.1250 kg/ha) was 0.0. For the same compound, the “Preemergence herbicidal rating IPOHE” value ([5]; rate 0.2500 kg/ha) was 0.0, the “Preemergence herbicidal rating ECHCG” value ([6]; rate 0.0313 kg/ha) was 0.0 and the “Preemergence herbicidal rating ECHCG” value ([6]; rate 0.0625 kg/ha) was 0.0. For the same compound, the “Preemergence herbicidal rating ECHCG” value ([6]; rate 0.1250 kg/ha) was 0.0, the “Preemergence herbicidal rating ECHCG” value ([6]; rate 0.2500 kg/ha) was 0.0 and the “Preemergence herbicidal rating TRZAWR” value ([7]; rate 0.0313 kg/ha) was 0.0. The “Preemergence herbicidal rating TRZAWR” value ([7]; rate 0.0625 kg/ha) was 0.0, the “Preemergence herbicidal rating TRZAWR” value ([7]; rate 0.1250 kg/ha) was 0.0 and the “Preemergence herbicidal rating TRZAWR” value ([7]; rate 0.2500 kg/ha) was 0.0. The “Herbicidal rating ECHORC” value ([8]; rate 0.0313 kg/ha) was 5.0, the “Herbicidal rating ECHORC” value ([8]; rate 0.0625 kg/ha) was 5.0 and the “Herbicidal rating ECHORC” value ([8]; rate 0.1250 kg/ha) was 5.0. The “Herbicidal rating ECHORC” value ([8]; rate 0.2500 kg/ha) was 6.0, the “Postemergence herbicidal rating TRZAWR” value ([9]; Rate 0.0158 kg/ha) was 3.5 and the “Postemergence herbicidal rating TRZAWR” value ([9]; Rate 0.0315 kg/ha) was 3.5. For the same compound, the “Postemergence herbicidal rating TRZAWR” value ([9]; Rate 0.0630 kg/ha) was 3.5, the “Herbicidal rating ECHORC” value ([10]; 0.0313 kg/ha) was 5.0 and the “Herbicidal rating ECHORC” value ([10]; 0.0625 kg/ha) was 5.0. For the same compound, the “Herbicidal rating ECHORC” value ([10]; 0.1250 kg/ha) was 5.0, the “Herbicidal rating ECHORC” value ([10]; 0.2500 kg/ha) was 6.0 and the “Preemergence herbicidal rating CHEAL” value ([11]; rate 0.0313 kg/ha) was 0.0. For the same compound, the “Preemergence herbicidal rating CHEAL” value ([11]; rate 0.0625 kg/ha) was 1.0, the “Preemergence herbicidal rating CHEAL” value ([11]; rate 0.1250 kg/ha) was 3.0 and the “Preemergence herbicidal rating CHEAL” value ([11]; rate 0.2500 kg/ha) was 9.0. The “Postemergence herbicidal rating IPOHE” value ([12]; Rate 0.0158 kg/ha) was 9.0, the “Postemergence herbicidal rating IPOHE” value ([12]; Rate 0.0315 kg/ha) was 9.0 and the “Postemergence herbicidal rating IPOHE” value ([12]; Rate 0.0630 kg/ha) was 9.0. The “Preemergence herbicidal rating ORYSAT” value ([13]; rate 0.0313 kg/ha) was 0.0, the “Preemergence herbicidal rating ORYSAT” value ([13]; rate 0.0625 kg/ha) was 0.0 and the “Preemergence herbicidal rating ORYSAT” value ([13]; rate 0.1250 kg/ha) was 0.0. For the same compound, the “Preemergence herbicidal rating ORYSAT” value ([13]; rate 0.2500 kg/ha) was 0.0.
